Several values for one entry are separate records, joined by “and”; a condition that tells them apart may be missing. Equal entries are not always repeated.
Experiments:
CatL = molecular target: T1, CatL (Homo sapiens, UniProt P07711); assay: Cathepsin inhibition test, CatL; format: biochemical; settings: for Residual activity (Vi/V0): Fig. S3 panel b, single replicates
T1 construct: made in house

human CatK = molecular target: T2, human CatK (Homo sapiens, UniProt P43235); assay: Cathepsin inhibition test, CatK; format: biochemical; settings: Fig. S3 panel a, single replicates
T2 construct: made in house
T2 sequence (P43235 115-329): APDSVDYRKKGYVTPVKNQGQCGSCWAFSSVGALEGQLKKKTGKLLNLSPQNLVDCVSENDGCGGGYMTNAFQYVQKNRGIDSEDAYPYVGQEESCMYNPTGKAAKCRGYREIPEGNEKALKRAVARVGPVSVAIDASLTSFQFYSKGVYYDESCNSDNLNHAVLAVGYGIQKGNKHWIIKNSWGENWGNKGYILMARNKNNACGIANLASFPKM

human CatV = molecular target: T3, human CatV (Homo sapiens, UniProt O60911); assay: Cathepsin inhibition test, CatV; format: biochemical; settings: Fig. S3 panel c, single replicates
T3 construct: made in house
T3 sequence (O60911 114-334): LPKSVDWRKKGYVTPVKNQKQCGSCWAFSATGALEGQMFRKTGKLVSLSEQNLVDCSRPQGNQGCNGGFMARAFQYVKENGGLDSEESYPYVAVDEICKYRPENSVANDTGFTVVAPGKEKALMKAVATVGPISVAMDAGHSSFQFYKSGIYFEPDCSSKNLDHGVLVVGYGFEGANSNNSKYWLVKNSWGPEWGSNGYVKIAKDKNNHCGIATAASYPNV

SARS-CoV-2-GFP = assay: microbe, parasite or virus in culture; format: cell-based; settings: mean with standard error, read-out: VERO E6 EC50
[1] = inhibitor 0.189 nM, 0.000189 µM
[2] = inhibitor 0.612 nM, 0.000612 µM
[3] = inhibitor 1.103 nM, 0.001103 µM
[4] = inhibitor 1.985 nM, 0.001985 µM
[5] = inhibitor 3.572 nM, 0.003572 µM
[6] = inhibitor 11.547 nM, 0.011547 µM
[7] = inhibitor 20.833 nM, 0.020833 µM
[8] = inhibitor 0.105 nM, 0.000105 µM

T1 sequence (P07711 114-333): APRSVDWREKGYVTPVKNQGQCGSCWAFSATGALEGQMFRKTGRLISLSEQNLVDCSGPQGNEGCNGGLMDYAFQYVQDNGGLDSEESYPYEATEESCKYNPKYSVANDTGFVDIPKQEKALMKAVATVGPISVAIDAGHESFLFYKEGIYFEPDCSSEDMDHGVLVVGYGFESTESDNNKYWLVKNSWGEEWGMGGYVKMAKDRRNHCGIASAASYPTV

CC(C)C[C@H](NC(=O)OCc1ccccc1)C(=O)N[C@@H](C[C@@H]1CCNC1=O)C(O)S(=O)(=O)[O-].[Na+] (stereo partly drawn) [GC376]
Residual activity (Vi/V0) (CatL; [1]): 0.8855 and 0.7968 and 0.4672 and 0.774 and 0.5436 and 0.6444 and 0.6384 and 0.5984 and 0.8706 and 0.7685
Residual activity (Vi/V0) (CatL; inhibitor 0.340 nM, 0.00034 µM): 0.6489 and 0.6117 and 0.2724 and 0.4771 and 0.3326 and 0.4189 and 0.397 and 0.4003 and 0.6575 and 0.5962
Residual activity (Vi/V0) (CatL; [2]): 0.6544 and 0.4591 and 0.279 and 0.4155 and 0.2277 and 0.7268 and 0.6794 and 0.7031 and 0.6487 and 0.6608
Residual activity (Vi/V0) (CatL; [3]): 0.448 and 0.2903 and 0.222 and 0.2673 and 0.2098 and 0.5439 and 0.5159 and 0.5223 and 0.4578 and 0.481
Residual activity (Vi/V0) (CatL; [4]): 0.2589 and 0.1857 and 0.1649 and 0.2093 and 0.1658 and 0.3522 and 0.3323 and 0.3518 and 0.2487 and 0.2662
Residual activity (Vi/V0) (CatL; [5]): 0.2062 and 0.1428 and 0.1169 and 0.1623 and 0.08981 and 0.207 and 0.1929 and 0.2019 and 0.196 and 0.2135
Residual activity (Vi/V0) (CatL; inhibitor 6.430 nM, 0.00643 µM): 0.139 and 0.09925 and 0.07105 and 0.118 and 0.08137 and 0.1289 and 0.127 and 0.1302 and 0.1295 and 0.1384
Residual activity (Vi/V0) (CatL; [6]): 0.09523 and 0.05909 and 0.04564 and 0.05812 and 0.04092 and 0.07914 and 0.07029 and 0.07354 and 0.08822 and 0.09606
Residual activity (Vi/V0) (CatL; [7]): 0.05198 and 0.03378 and 0.02298 and 0.02931 and 0.02488 and 0.02998 and 0.02815 and 0.0288 and 0.05176 and 0.05151
Residual activity (Vi/V0) (CatL; inhibitor 37.500 nM, 0.0375 µM): 0.02351 and 0.02002 and 0.01036 (2×) and 0.01453 and 0.0114 and 0.01064 and 0.01075 and 0.02418 and 0.02491
Residual activity (Vi/V0) (human CatK; inhibitor 0.010 nM, 10 pM): 1 and 1.168 and 0.9786 and 1.164 and 0.971
Residual activity (Vi/V0) (human CatK; inhibitor 0.018 nM, 18 pM): 1.045 and 0.9537 and 0.8787 and 1.068 and 0.891
Residual activity (Vi/V0) (human CatK; inhibitor 0.032 nM, 32 pM): 1.008 and 0.9541 and 1.052 and 1.097 and 0.9731
Residual activity (Vi/V0) (human CatK; inhibitor 0.058 nM, 58 pM): 0.9618 and 1.104 and 1
Residual activity (Vi/V0) (human CatK; [8]): 0.7126 and 0.7756 and 0.8857 and 0.9962 and 0.9154
Residual activity (Vi/V0) (human CatK; [1]): 0.687 and 0.7701 and 0.8381 and 0.9358 and 0.9354
Residual activity (Vi/V0) (human CatK; inhibitor 0.340 nM, 0.00034 µM): 0.5857 and 0.5656 and 0.9002 and 0.8293 and 0.7129
Residual activity (Vi/V0) (human CatK; [2]): 0.5454 and 0.3889 and 0.8833 and 0.6839 and 0.5394
Residual activity (Vi/V0) (human CatK; [3]): 0.3854 and 0.2819 and 0.6231 and 0.4604 and 0.4262
Residual activity (Vi/V0) (human CatK; [4]): 0.2545 and 0.4374 and 0.3426 and 0.223
Residual activity (Vi/V0) (human CatK; [5]): 0.1189 and 0.1895 and 0.3494 and 0.2326 and 0.2097
Residual activity (Vi/V0) (human CatK; inhibitor 6.430 nM, 0.00643 µM): 0.1182 and 0.1529 (2×) and 0.2134 and 0.1788
Residual activity (Vi/V0) (human CatK; [6]): 0.09726 and 0.09205 and 0.1617 and 0.0793 and 0.08002
Residual activity (Vi/V0) (human CatK; [7]): -0.01061 and 0.0635 and 0.09619 and 0.03724 and 0.04497
Residual activity (Vi/V0) (human CatK; inhibitor 37.500 nM, 0.0375 µM): 0.05483 and -0.02967 and 0.05665 and 0.01671
Residual activity (Vi/V0) (human CatV; inhibitor 0.010 nM, 10 pM): 1.0857 and 1.077 and 0.9774 and 0.8982 and 0.991 and 0.8512 and 1.1 and 0.8679
Residual activity (Vi/V0) (human CatV; inhibitor 0.018 nM, 18 pM): 1.336 and 1.266 and 0.9662 and 0.9302 and 1.04 and 0.8965 and 1.124 and 0.9597
Residual activity (Vi/V0) (human CatV; inhibitor 0.032 nM, 32 pM): 1.039 and 0.8981 and 0.9517 and 0.9088 and 1.019 and 0.9688 and 1.292 and 0.8604
Residual activity (Vi/V0) (human CatV; inhibitor 0.058 nM, 58 pM): 0.6518 and 0.5159 and 0.8896 and 0.8461 and 0.9826 and 0.9436 and 1.221 and 0.8427
Residual activity (Vi/V0) (human CatV; [8]): 0.9622 and 0.7389 and 0.9442 and 0.8081 and 0.8801 and 0.8142 and 1.285 and 0.7581
Residual activity (Vi/V0) (human CatV; [1]): 0.6972 and 0.4428 and 0.8137 and 0.7094 and 0.8934 and 0.7434 and 1.066 and 0.6389
Residual activity (Vi/V0) (human CatV; inhibitor 0.340 nM, 0.00034 µM): 0.6247 and 0.3497 and 0.4956 and 0.4527 and 0.4873 and 0.5939 and 0.9738 and 0.4752
Residual activity (Vi/V0) (human CatV; [2]): 0.3307 and 0.2457 and 0.4411 and 0.4505 and 0.4917 and 0.4681 and 0.5327 and 0.3674
Residual activity (Vi/V0) (human CatV; [3]): 0.3031 and 0.1765 and 0.2948 and 0.2868 and 0.2798 and 0.3141 and 0.3564 and 0.2414

CC(C)C[C@H](NC(=O)OCc1ccccc1)C(=O)N[C@@H](CC1CCNC1=O)C(O)S(=O)(=O)O (stereo partly drawn) [GC-376, reference compound]
Ki (CatL; mean with standard deviation and 95% confidence interval, pH 5.5, 37 °C): 0.000259 µM
EC50 (SARS-CoV-2-GFP): 1.07 ± 0.278 µM

Reference: paper PMC10584882 (Communications Biology, 2023)
